The numbers were not newly measured in patent US5296224A, “Kava-kava extract, process for the production thereof and use thereof” (Dr. Wilmar Schwabe GmbH & Co., priority 1990, dated 1994), which cites them from elsewhere.

One data set relates to skin. As to conditions: Shulgin 1973.
The conditions of data set [1]: 21° C.
The conditions of data set [2]: administered as pure substance; Kretschmer, MMW 4/1970.

As to `COc1ccc(/C=C/C(=O)c2c(O)cc(OC)cc2OC)cc1` [flavokawin A], the skin-specific secondary effects result with skin was “skin-specific secondary effects”.
For `COc1cc(O)c(C(=O)/C=C/c2ccccc2)c(OC)c1` [flavokawin B], the skin-specific secondary effects entry in the data set on skin is on record as “skin-specific secondary effects”.
For `COC1=CC(=O)O[C@@H](/C=C/c2ccccc2)C1` [kawain], the “maximum solubility in water” value in data set [1] is 2.2 mg/100 ml water. The effective daily dose entry in data set [2] was “about 200 mg”.
